This passage reports MIC, Activity and Drug uptake results from ChEMBL document CHEMBL3407397, “Effect of size and N-terminal residue characteristics on bacterial cell penetration and antibacterial activity of the proline-rich peptide Bac7” (J Med Chem, 2015).

SMILES strings stand for the structures. Converted amounts (≈) assume the structure as drawn. The source made the active and inactive calls. The calls are words filed in the database; no cut-off is given here. Non-standard residues stand in square brackets, D forms with d. Residues, ends and D or L forms follow the SMILES beside them. *: point of attachment. X1 = F[B-]1(F)n2c(ccc2*)C=C2C=CC=[N+]21; Cit = NC(=O)NCCC[C@H](N)C(=O)O

One may read the MIC as the lowest concentration found to suppress growth. A high value points to a need for much substance.

Series [1] relates to Escherichia coli. Nature of the series: Antimicrobial activity against Escherichia coli ATCC 25922 incubated for 18 hrs at 37 degC by broth microdilution method. It counts as functional. Particulars: ATCC 25922, 18 h.
Series [2] deals with Escherichia coli. Nature of the series: Antimicrobial activity against Escherichia coli HB101 incubated for 18 hrs at 37 degC by broth microdilution method. In kind it is functional. The note with it: HB101, 18 h.
For series [3], the system named is Escherichia coli. Description: Antimicrobial activity against O-antigen lacking LPS containing wild type Escherichia coli BW25113 incubated for 18 hrs at 37 degC by broth microdilution method. In kind it is functional. The note with it: BW25113, 18 h.
Series [4] has as its system Escherichia coli. Description: Antimicrobial activity against delta-waaG deletion mutant containing Escherichia coli BW25113 incubated for 18 hrs at 37 degC by broth microdilution method. It counts as functional. Particulars: BW25113, 18 h. A general note: Broth dilution looks for growth in wells or tubes with falling amounts of substance.
The test system of series [5] is Escherichia coli. Description: Antimicrobial activity against delta-sbmA deletion mutant containing Escherichia coli BW25113 incubated for 18 hrs at 37 degC by broth microdilution method. It counts as functional. Particulars: BW25113, 18 h.
Series [6] concerns Escherichia coli. Description: Bactericidal activity against O-antigen lacking LPS containing wild type Escherichia coli BW25113 assessed as bacterial killing at 4 uM incubated for 3.5 hrs. It counts as functional, organism-based.
Series [7] concerns Escherichia coli. Description: Bactericidal activity against delta-waaG deletion mutant containing wild type Escherichia coli BW25113 assessed as bacterial killing at 4 uM incubated for 3.5 hrs. In kind it is functional, organism-based.
The test system of series [8] is Escherichia coli. Description: Drug uptake in O-antigen lacking LPS containing wild type Escherichia coli BW25113 up to 32 uM incubated for 60 mins by propidium iodide staining based cytofluorimetric method. In kind it is ADME, organism-based. The note with it: in vivo, 1 h.
Series [9] relates to Escherichia coli. Description: Drug uptake in O-antigen lacking LPS containing wild type Escherichia coli BW25113 at 1 uM up to 3.5 hrs in presence of trypan blue quencher. It counts as ADME, organism-based. Particulars: in vivo.
Series [10] concerns Escherichia coli. Description: Drug uptake in delta-waaG deletion mutant containing Escherichia coli BW25113 at 4 uM up to 3.5 hrs in presence of trypan blue quencher. It counts as ADME, organism-based. Particulars: in vivo.
The subject of series [11] is Escherichia coli. Nature of the series: Drug uptake in Escherichia coli ATCC 25922 assessed as mean fluorescence intensity using BODIPY-labeled compound at 0.25 to 4 uM incubated for 10 mins by flow cytometry. In kind it is ADME, organism-based. The note with it: in vivo. In general terms: A flow cytometer gives signals particle by particle.
For series [12], the system named is Escherichia coli. Description: Drug uptake in Escherichia coli ATCC 25922 assessed as mean fluorescence intensity using BODIPY-labeled compound at 0.25 to 4 uM incubated for 10 mins in presence of trypan blue quencher by flow cytometry. In kind it is ADME, organism-based. The note with it: in vivo.
The test system of series [13] is Escherichia coli. Description: Drug uptake in Escherichia coli ATCC 25922 assessed as mean fluorescence intensity using BODIPY-labeled compound at 0.25 to 4 uM incubated for 60 mins by flow cytometry. Particulars: in vivo, 1 h. In kind it is ADME, organism-based.
In series [14] the test system is Escherichia coli. Nature of the series: Drug uptake in Escherichia coli ATCC 25922 assessed as mean fluorescence intensity using BODIPY-labeled compound at 0.25 to 4 uM incubated for 60 mins in presence of trypan blue quencher by flow cytometry. It counts as ADME, organism-based. Particulars: in vivo, 1 h.
The subject of series [15] is Escherichia coli. Nature of the series: Drug uptake in Escherichia coli ATCC 25922 assessed as mean fluorescence intensity using BODIPY-labeled compound at 0.25 uM incubated for 10 mins by confocal microscopy. In kind it is ADME, organism-based. Particulars: in vivo.
The test system of series [16] is Escherichia coli. Description: Bacteriostatic activity against O-antigen lacking LPS containing wild type Escherichia coli BW25113 at 4 uM incubated for 3.5 hrs. In kind it is functional, organism-based.
Series [17] has as its system Escherichia coli. Nature of the series: Bacteriostatic activity against delta-waaG deletion mutant containing wild type Escherichia coli BW25113 at 4 uM incubated for 3.5 hrs. It counts as functional, organism-based.

On to `CC[C@H](C)[C@H](NC(=O)[C@H](CCCNC(=N)N)NC(=O)[C@@H](N)CCCNC(=N)N)C(=O)N[C@@H](CCCNC(=N)N)C(=O)N1CCC[C@H]1C(=O)N[C@@H](CCCNC(=N)N)C(=O)N1CCC[C@H]1C(=O)N1CCC[C@H]1C(=O)N[C@@H](CCCNC(=N)N)C(=O)N[C@@H](CC(C)C)C(=O)N1CCC[C@H]1C(=O)N[C@@H](CCCNC(=N)N)C(=O)N1CCC[C@H]1C(=O)N[C@@H](CCCNC(=N)N)C(=O)N1CCC[C@H]1C(=O)N[C@@H](CCCNC(=N)N)C(=O)N1CCC[C@H]1C(=O)N[C@@H](CC(C)C)C(=O)N1CCC[C@H]1C(=O)N[C@@H](Cc1ccc(O)cc1)C(=O)N1CCC[C@H]1C(=O)N[C@@H](CCCNC(=N)N)C(=O)N1CCC[C@H]1C(=O)O`, for which the MIC against Escherichia coli [1] turned out to be 0.5 µM (≈ 1.45 µg/mL); with Escherichia coli [2] it was 0.5 µM (≈ 1.45 µg/mL); in the series with Escherichia coli [3], 1 µM (≈ 2.9 µg/mL); against Escherichia coli [4], 0.5 µM (≈ 1.45 µg/mL); in the series on Escherichia coli [5], 8 µM (≈ 23.2 µg/mL). Also, the result in the series on Escherichia coli [6] and in the series with Escherichia coli [7] was Active. In the series on Escherichia coli [8], the Drug uptake entry is given as “Not Active”.
For `CC[C@H](C)[C@H](N)C(=O)N[C@@H](CCCNC(=N)N)C(=O)N1CCC[C@H]1C(=O)N[C@@H](CCCNC(=N)N)C(=O)N1CCC[C@H]1C(=O)N1CCC[C@H]1C(=O)N[C@@H](CCCNC(=N)N)C(=O)N[C@@H](CC(C)C)C(=O)N1CCC[C@H]1C(=O)N[C@@H](CCCNC(=N)N)C(=O)N1CCC[C@H]1C(=O)N[C@@H](CCCNC(=N)N)C(=O)N1CCC[C@H]1C(=O)N[C@@H](CCCNC(=N)N)C(=O)N1CCC[C@H]1C(=O)N[C@@H](CC(C)C)C(=O)N1CCC[C@H]1C(=O)N[C@@H](Cc1ccc(O)cc1)C(=O)N1CCC[C@H]1C(=O)N[C@@H](CCCNC(=N)N)C(=O)N1CCC[C@H]1C(=O)N[C@@H](CSc1ccc2n1[B-](F)(F)[N+]1=CC=CC1=C2)C(=O)O` (H-IRPRPPRLPRPRPRPLPYPRPC(X1)-OH), the Drug uptake entry with Escherichia coli [9] and with Escherichia coli [10] was “Active” throughout.
Turning to `CC[C@H](C)[C@H](NC(=O)[C@H](CCCNC(=N)N)NC(=O)[C@@H](N)CCCNC(=N)N)C(=O)N[C@@H](CCCNC(=N)N)C(=O)N1CCC[C@H]1C(=O)N[C@@H](CCCNC(=N)N)C(=O)N1CCC[C@H]1C(=O)N1CCC[C@H]1C(=O)N[C@@H](CCCNC(=N)N)C(=O)N[C@@H](CC(C)C)C(=O)N1CCC[C@H]1C(=O)N[C@@H](CCCNC(=N)N)C(=O)N1CCC[C@H]1C(=O)N[C@@H](CSc1ccc2n1[B-](F)(F)[N+]1=CC=CC1=C2)C(=O)O` (H-RRIRPRPPRLPRPC(X1)-OH), the Drug uptake entry with Escherichia coli [11] is given as “Not Active”; in the series with Escherichia coli [12] it was “Not Active”; with Escherichia coli [13], “Not Active”; in the series on Escherichia coli [14], “Not Active”; in the series with Escherichia coli [15], “Active”. Besides, the results for the MIC against Escherichia coli [1] and against Escherichia coli [2] were 16 µM (≈ 31.4 µg/mL) and 8 µM (≈ 15.7 µg/mL), respectively.
`CC[C@H](C)[C@H](NC(=O)[C@H](CCCNC(=N)N)NC(=O)[C@@H](N)CCCNC(=N)N)C(=O)N[C@@H](CCCNC(=N)N)C(=O)N1CCC[C@H]1C(=O)N[C@@H](CCCNC(=N)N)C(=O)N1CCC[C@H]1C(=O)N1CCC[C@H]1C(=O)N[C@@H](CCCNC(=N)N)C(=O)N[C@@H](CC(C)C)C(=O)N1CCC[C@H]1C(=O)N[C@@H](CCCNC(=N)N)C(=O)N1CCC[C@H]1C(=O)N[C@@H](CCCNC(=N)N)C(=O)N1CCC[C@H]1C(=O)N[C@@H](CCCNC(=N)N)C(=O)N1CCC[C@H]1C(=O)N[C@@H](CC(C)C)C(=O)N1CCC[C@H]1C(=O)N[C@@H](Cc1ccccc1)C(=O)N1CCC[C@H]1C(=O)N[C@@H](CCCNC(=N)N)C(=O)N1CCC[C@H]1C(=O)NCC(=O)N1CCC[C@H]1C(=O)N[C@@H](CCCNC(=N)N)C(=O)N1CCC[C@H]1C(=O)N[C@H](C(=O)N1CCC[C@H]1C(=O)N[C@@H](CCCNC(=N)N)C(=O)N1CCC[C@H]1C(=O)N[C@@H](CC(C)C)C(=O)N1CCC[C@H]1C(=O)N[C@@H](Cc1ccccc1)C(=O)N1CCC[C@H]1C(=O)N[C@@H](CSc1ccc2n1[B-](F)(F)[N+]1=CC=CC1=C2)C(=O)O)[C@@H](C)CC` (H-RRIRPRPPRLPRPRPRPLPFPRPGPRPIPRPLPFPC(X1)-OH): the Drug uptake entry with Escherichia coli [11], with Escherichia coli [12], in the series on Escherichia coli [13], in the series on Escherichia coli [14] and with Escherichia coli [15] was “Active” throughout.
As to `CC[C@H](C)[C@H](NC(=O)[C@H](CCCNC(N)=O)NC(=O)[C@@H](N)CCCNC(N)=O)C(=O)N[C@@H](CCCNC(=N)N)C(=O)N1CCC[C@H]1C(=O)N[C@@H](CCCNC(=N)N)C(=O)N1CCC[C@H]1C(=O)N1CCC[C@H]1C(=O)N[C@@H](CCCNC(=N)N)C(=O)N[C@@H](CC(C)C)C(=O)N1CCC[C@H]1C(=O)N[C@@H](CCCNC(=N)N)C(=O)N1CCC[C@H]1C(=O)N[C@@H](CCCNC(=N)N)C(=O)N1CCC[C@H]1C(=O)N[C@@H](CCCNC(=N)N)C(=O)N1CCC[C@H]1C(=O)N[C@@H](CC(C)C)C(=O)N1CCC[C@H]1C(=O)N[C@@H](Cc1ccc(O)cc1)C(=O)N1CCC[C@H]1C(=O)N[C@@H](CCCNC(=N)N)C(=O)N1CCC[C@H]1C(=O)O` (H-[Cit][Cit]IRPRPPRLPRPRPRPLPYPRP-OH), the MIC against Escherichia coli [1] was 32 µM (≈ 92.8 µg/mL); against Escherichia coli [3], 32 µM (≈ 92.8 µg/mL); in the series with Escherichia coli [4], 8 µM (≈ 23.2 µg/mL); against Escherichia coli [5], above 64 µM. In addition, the Drug uptake result with Escherichia coli [9] and in the series with Escherichia coli [10] was “Active” throughout. For the same compound, the result with Escherichia coli [16] and in the series with Escherichia coli [17] was Active.
